The structures appear in SMILES notation. Where only a bound is given, the exact number is not on record here.

The test system of one assay is Bmi-1 protein. Nature of the assay: Sandwich ELISA Assay (Bmi-1 protein level in HT-1080 cells after compound treatment). In kind it is cell-based. The note with it: Table 1, Bmi-1 sandwich ELISA, read-out: ELISA EC50 value for Bmi-1 protein. The gist of the method:
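HT-1080 cells exposed to compounds for 40–48 h at 37 °C (0.5% DMSO final), then lysed. Bmi-1 in lysates measured by sandwich ELISA (mouse monoclonal capture, rabbit anti-Bmi-1 detection, HRP anti-rabbit, TMB), read at OD450 with OD570 reference against a recombinant Bmi-1 standard curve (0–8000 pg/mL).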
In general terms: In an ELISA, binding on a coated surface is turned into a signal by an enzyme label.
A word on the EC50: it is the midpoint of the concentration-response curve. Turning to `C=CCN1CCc2c(nc(C)n2-c2cncc(Nc3ccc(C(F)(F)F)cc3)n2)C1` [compound 375], the EC50 was 100 to 3000 nM.
On the same count and under the same terms, the value for `Cc1nn(C)c(C)c1-c1cncc(Nc2ccc(Br)cc2)n1` [compound 106, N-(4-bromophenyl)-6-(1,3,5-trimethyl-1H-pyrazol-4-yl)pyrazin-2-amine] was less than 1 nM.
Take `FC(F)(F)c1ccc(Nc2cncc(-c3c(C(F)(F)F)nc4cnccn34)n2)cc1` [compound 93, 6-[2-(trifluoromethyl)imidazo[1,2-a]pyrazin-3-yl]-N-[4-(trifluoromethyl)phenyl]pyrazin-2-amine]: the EC50 was in the range of 10 to 100 nM.
Turning to `Cc1nc2ncc(F)cc2n1-c1cncc(Nc2ccc(C(F)(F)F)cc2)n1` [compound 270, 6-(6-fluoro-2-methyl-1H-imidazo[4,5-b]pyridin-1-yl)-N-[4-(trifluoromethyl)phenyl]pyrazin-2-amine], the EC50 is 1 to 10 nM.
The same measure, in the same setting: the value for `Cc1nc2ncc(F)cc2n1-c1cncc(Nc2ccc(C(F)(F)F)c(F)c2)n1` [compound 373, 6-(6-fluoro-2-methyl-1H-imidazo[4,5-b]pyridin-1-yl)-N-[3-fluoro-4-(trifluoromethyl)phenyl]pyrazin-2-amine] was 10 to 100 nM.
Same read-out and setting: the value for `Fc1cnc2nc(C3CC3)n(-c3cncc(Nc4ccc(C(F)(F)F)cc4)n3)c2c1` [compound 293, 6-(2-cyclopropyl-6-fluoro-1H-imidazo[4,5-b]pyridin-1-yl)-N-[4-(trifluoromethyl)phenyl]pyrazin-2-amine] was 10 to 100 nM.
Same read-out and setting: the value for `FC(F)(F)c1ccc(Nc2cncc(-c3c(C(F)(F)F)nc4ccccn34)n2)nc1` [Cpd 190, 6-[2-(trifluoromethyl)imidazo[1,2-a]pyridin-3-yl]-N-[5-(trifluoromethyl)pyridin-2-yl]pyrazin-2-amine] was 10 to 100 nM.
For the compound `Cc1nc2ccc(F)cn2c1-c1cncc(Nc2ccc(OC(F)F)c(F)c2)n1` [compound 309, N-[4-(difluoromethoxy)-3-fluorophenyl]-6-(6-fluoro-2-methylimidazo[1,2-a]pyridin-3-yl)pyrazin-2-amine], the EC50 lay within 1 to 10 nM.
On the same count and under the same terms, then `Cc1nc2ccc(F)cc2n1-c1cncc(Nc2ccc(Cl)cc2)n1` [compound 554, N-(4-chlorophenyl)-6-(6-fluoro-2-methyl-1H-benzimidazol-1-yl)pyrazin-2-amine], with 10 to 100 nM; and `CCc1nn2ccc(Cl)cc2c1-c1cncc(Nc2ccc(C(F)(F)F)cc2)n1` [compound 539, 6-(5-chloro-2-ethylpyrazolo[1,5-a]pyridin-3-yl)-N-[4-(trifluoromethyl)phenyl]pyrazin-2-amine], with 10 to 100 nM.
On the same count and under the same terms, the value for `[O-][n+]1cc(Nc2ccc(OC(F)F)cc2)nc(-n2c(C3CC3)nc3cc(F)c(F)cc32)c1` [compound 530, 6-(2-cyclopropyl-5,6-difluoro-1H-benzimidazol-1-yl)-N-[4-(difluoromethoxy)phenyl]pyrazin-2-amine 4-oxide] was 10 to 100 nM.
The same measure, in the same setting: then `CSc1cc(Nc2ccc(C(F)(F)F)cc2)nc(-c2c(C(F)(F)F)nc3ccccn23)c1` [compound 173, 4-(methylsulfanyl)-6-[2-(trifluoromethyl)imidazo[1,2-a]pyridin-3-yl]-N-[4-(trifluoromethyl)phenyl]pyridin-2-amine], with 100 to 3000 nM.
For the compound `Cc1nc2ncccc2n1-c1cc(N)cc(Nc2ccc(C(F)(F)F)cc2)n1` [compound 292, 6-(2-methyl-1H-imidazo[4,5-b]pyridin-1-yl)-N^2-[4-(trifluoromethyl)phenyl]pyridine-2,4-diamine], the EC50 lay within 1 to 10 nM.
Still for that read-out and setting: the value for `CCc1nn2ccccc2c1-c1cncc(Nc2ccc(Cl)cc2)n1` [compound 629, N-(4-chlorophenyl)-6-(2-ethylpyrazolo[1,5-a]pyridin-3-yl)pyrazin-2-amine] was 1 to 10 nM; that for `CCc1nc2ncc(Cl)cc2n1-c1cncc(Nc2ccccc2)n1` [compound 549] was 100 to 3000 nM.

Staying with this assay, now noted: read-out: ELISA EC50 value for Bmi-1 protein, Table 1, Bmi-1 sandwich ELISA.
For `Cc1nc2ccccc2n1-c1ccc(N)c(Nc2ccc(C(F)(F)F)cc2)n1` [compound 465, 6-(2-methyl-1H-benzimidazol-1-yl)-N^2-[4-(trifluoromethyl)phenyl]pyridine-2,3-diamine], the concentration for a half-maximal effect (EC50) is 100 to 3000 nM.

Source of the values: US10584115B2, “Substituted pyridine and pyrazine BMI-1 inhibitors” (PTC Therapeutics, Inc., priority 2013, dated 2020).
